Results published in patent USRE47193E1, “Selectively substituted quinoline compounds” (EISAI R&D MANAGEMENT CO., LTD., priority 2013, dated 2019).

How the values were obtained:
Human TLR7/8 = test: Human PBMC cell-based assay, TLR7/8 stimulus (RNA-Ig), cytokine ELISA; settings: primary human PBMC assay, TLR7/8 potency; ligand not given; read-out: Human PBMCs IC50
Outline: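 Healthy-donor human PBMC, 2×10^5 cells/well (1×10^5 in later assay), pre-treated 30 min with compound (0.1% DMSO). Stimulated 20 h at 37 °C with RNA-Ig: 26-mer U1 snRNA stem loop IV phosphorothioate RNA at 2.5 μM plus anti-ssDNA antibody (1:25 or 1 ug/ml). Supernatant cytokines by ELISA.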

Mouse Splenocytes = test: Mouse spleen cell-based assay (R848, IL-6 ELISA); settings: BALB/c spleen cells, 370 nM R848
Method: Mouse Spleen cell-based assay. Spleens were harvested from female BALB/c mice (Jackson Labs, Bar Harbor, Me.) euthanized by CO2. A single cell suspension was obtained by passing spleens through a 40 μm an nylon cell strainer. Cells were washed twice with 50 ml PBS (Mediatech, Inc., Manassas, Va.) and red blood cells were lysed in 5 ml RBC Lysis buffer (eBioscience, Inc., San Diego, Calif.) for 5 minutes at room temperature. Cells were washed twice more in PBS and finally resuspended in supplemented RPMI-1640 at 2.5×10^6 cells/ml. Cells were plated at 100 μl/well (2.5×10^5 cells/well) in 96-well tissue culture treated plates (Falcon). Serial dilutions of compounds solubilized in 100% DMSO were added in triplicate to cells to yield a final concentration of 0.1% DMSO. Cells were incubated with compound for 30 minutes at 37° C., 5% CO2 before adding 100 μl/well of 740 nM R848 (Resiquimod; GLSynthesis, Worcester, Mass.) in complete media for a final concentration of 370 nM R848. Cells were incubated for 20 hours at 37° C., 5% CO2. Culture supernatants were collected, and levels of IL-6 were assessed by standard ELISA procedure according to the manufacturer's recommended protocol (BD Biosciences, Inc., San Diego, Calif.).

mouse TLR7 = target: T1, mouse TLR7 (Mus musculus, UniProt P58681); test: Short-term in vivo (STIV) assay: oral dosing, R848 s.c., plasma IL-6; set-up: female BALB/c mice (Jackson Labs, Bar Harbor, Me.) were dosed by oral gavage; tissue Jackson Labs; host or cells: living female BALB/c mice; plasma IL-6 after s.c. R848
T1 sequence (P58681 27-1050): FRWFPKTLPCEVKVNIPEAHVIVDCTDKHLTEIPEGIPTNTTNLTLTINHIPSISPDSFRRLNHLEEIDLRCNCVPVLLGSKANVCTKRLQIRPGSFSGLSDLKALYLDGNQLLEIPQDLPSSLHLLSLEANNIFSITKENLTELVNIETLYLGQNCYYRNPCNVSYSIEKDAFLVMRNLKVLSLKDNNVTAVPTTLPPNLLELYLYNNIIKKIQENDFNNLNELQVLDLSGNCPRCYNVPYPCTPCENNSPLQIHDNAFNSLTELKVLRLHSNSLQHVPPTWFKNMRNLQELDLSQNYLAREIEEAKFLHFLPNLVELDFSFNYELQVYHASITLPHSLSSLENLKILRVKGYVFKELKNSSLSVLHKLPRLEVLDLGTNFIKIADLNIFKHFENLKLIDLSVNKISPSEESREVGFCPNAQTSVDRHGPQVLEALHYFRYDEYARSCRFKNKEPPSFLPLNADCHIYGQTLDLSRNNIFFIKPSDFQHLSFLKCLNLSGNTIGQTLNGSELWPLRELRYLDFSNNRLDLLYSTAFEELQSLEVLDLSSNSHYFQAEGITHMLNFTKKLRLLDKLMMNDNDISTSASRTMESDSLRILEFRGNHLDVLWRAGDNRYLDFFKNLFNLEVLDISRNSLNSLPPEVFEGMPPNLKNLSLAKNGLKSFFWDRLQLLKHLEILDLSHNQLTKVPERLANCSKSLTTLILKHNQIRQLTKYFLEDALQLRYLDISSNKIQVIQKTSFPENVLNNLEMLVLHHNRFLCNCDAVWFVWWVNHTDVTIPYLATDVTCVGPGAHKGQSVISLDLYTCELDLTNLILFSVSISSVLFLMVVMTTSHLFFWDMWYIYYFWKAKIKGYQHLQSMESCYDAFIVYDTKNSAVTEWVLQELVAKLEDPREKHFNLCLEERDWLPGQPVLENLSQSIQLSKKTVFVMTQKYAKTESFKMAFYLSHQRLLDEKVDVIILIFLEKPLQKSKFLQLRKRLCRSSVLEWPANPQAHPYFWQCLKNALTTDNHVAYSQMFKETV
Outline: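 Female BALB/c mice (6–8 weeks) dosed orally with compound in 0.5% aqueous methyl-cellulose at 33, 100 or 300 mg/kg; at various times afterwards given 15 ug R848 s.c. to stimulate TLR7. Plasma IL-6 measured by ELISA to gauge potency and duration of action.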

Row | SMILES | IC50 (Human TLR7/8) [nM] | IC50 (Mouse Splenocytes) [nM] | % Suppression vs. Vehicle (mouse TLR7; 6 h, 11 mg/kg) [%] | % Suppression vs. Vehicle (mouse TLR7; 6 h, 33 mg/kg) [%] | % Suppression vs. Vehicle (mouse TLR7; 6 h, 100 mg/kg) [%] | % Suppression vs. Vehicle (mouse TLR7; 19 h, 11 mg/kg) [%] | % Suppression vs. Vehicle (mouse TLR7; 19 h, 33 mg/kg) [%] | % Suppression vs. Vehicle (mouse TLR7; 19 h, 100 mg/kg) [%] | IC50 (Mouse Splenocytes; Mus musculus, Splenocyte) [nM] | % Suppression vs. Vehicle (mouse TLR7; 3 h, 33 mg/kg) [%] | % Suppression vs. Vehicle (mouse TLR7; 3 h, 100 mg/kg) [%] | % Suppression vs. Vehicle (mouse TLR7; 13 h, 33 mg/kg) [%] | % Suppression vs. Vehicle (mouse TLR7; 13 h, 100 mg/kg) [%] | % Suppression vs. Vehicle (mouse TLR7; 13 h, 300 mg/kg) [%] | % Suppression vs. Vehicle (mouse TLR7; 24 h, 33 mg/kg) [%] | % Suppression vs. Vehicle (mouse TLR7; 24 h, 100 mg/kg) [%] | % Suppression vs. Vehicle (mouse TLR7; 24 h, 300 mg/kg) [%]
1 | C[C@@H]1CN(c2ccc(C#N)c3ncccc23)C[C@H](CN2CCC(N3CCCC3)CC2)O1 [ER-888480] | 1 | 87 | 85 | 100 | 100 | 63 | 89 | 98 | – | – | – | – | – | – | – | – | –
2 | CC1CN(c2ccc(C#N)c3ncccc23)CC(CN2CC(N3CCCC3)C2)O1 (stereo not drawn) [ER-889469] | 13 | – | – | 100 | 100 | – | – | 73 | 97 | 100 | 100 | – | – | – | – | – | –
3 | CC1CN(c2ccc(C#N)c3ncccc23)CC(CN2CC(N3CCCCC3)C2)O1 (stereo not drawn) [ER-889470] | 12 | – | – | 96 | 100 | – | – | 78 | 152 | 100 | 98 | – | – | – | – | – | –
4 | CC1CN(c2ccc(C#N)c3ncccc23)CC(CN2CCC(N3CCOCC3)CC2)O1 (stereo not drawn) [ER-890093] | 22 | – | – | 92 | 95 | – | – | – | 88 | – | 92 | 98 | 100 | – | – | – | –
5 | C[C@@H]1CN(c2ccc(C#N)c3ncccc23)C[C@H](CN2CC[C@H](N3CCCC3)C2)O1 [ER-893881] | 9 | – | – | 82 | 99 | – | – | – | 270 | 95 | – | 0 | 19 | – | – | – | –
6 | CCNC(=O)C1CCN(CC2CN(c3ccc(C#N)c4ncccc34)CC(C)O2)CC1 (stereo not drawn) [ER-895204] | 23 | – | – | 98 | – | – | – | – | 51 | – | – | 22 | 43 | 99 | 39 | 39 | 78
